How the values were obtained:
[1] = tested on: SF-295; assay: NCI 60 cell panel SRB screen; assay type: cell-based; settings: Homo sapiens; SF-295, single dose 10 μM; read-out: percent cell growth promotion
[2] = tested on: UACC-62; assay: NCI 60 cell panel SRB screen; assay type: cell-based; settings: Homo sapiens, UACC-62, read-out: percent cell growth promotion
[3] = tested on: SNB-19; assay: NCI 60 cell panel SRB screen; assay type: cell-based; settings: Homo sapiens; SNB-19, single dose 10 μM; read-out: percent cell growth promotion
[4] = tested on: HOP-62; assay: NCI 60 cell panel SRB screen; assay type: cell-based; settings: Homo sapiens; HOP-62, single dose 10 μM; read-out: percent cell growth promotion
[5] = tested on: ACHN; assay: NCI 60 cell panel SRB screen; assay type: cell-based; settings: Homo sapiens, single dose 10 μM, read-out: percent cell growth promotion
[6] = tested on: A498; assay: NCI 60 cell panel SRB screen; assay type: cell-based; settings: Homo sapiens; A498, single dose 10 μM; read-out: percent cell growth promotion
[7] = tested on: SK-MEL-5; assay: NCI 60 cell panel SRB screen; assay type: cell-based; settings: Homo sapiens, SK-MEL-5, read-out: percent cell growth promotion
[8] = tested on: DU-145; assay: NCI 60 cell panel SRB screen; assay type: cell-based; settings: Homo sapiens; DU-145, single dose 10 μM; read-out: percent cell growth promotion
[9] = tested on: CAKI-1; assay: NCI 60 cell panel SRB screen; assay type: cell-based, human; settings: Homo sapiens; CAKI-1, single dose 10 μM; read-out: percent cell growth promotion
[10] = tested on: MDA-MB 231/ATCC; assay: NCI 60 cell panel SRB screen; assay type: cell-based; settings: Homo sapiens, MDA-MB-231, read-out: percent cell growth promotion
[11] = tested on: U251; assay: NCI 60 cell panel SRB screen; assay type: cell-based; settings: Homo sapiens, U-251; U251, single dose 10 μM; read-out: percent cell growth promotion
[12] = tested on: SN12C; assay: NCI 60 cell panel SRB screen; assay type: cell-based; settings: Homo sapiens, single dose 10 μM, read-out: percent cell growth promotion
[13] = tested on: HCT-15; assay: NCI 60 cell panel SRB screen; assay type: cell-based; settings: Homo sapiens; HCT-15, single dose 10 μM; read-out: percent cell growth promotion
[14] = tested on: HCT-116; assay: NCI 60 cell panel SRB screen; assay type: cell-based; settings: Homo sapiens; HCT-116, single dose 10 μM; read-out: percent cell growth promotion
[15] = tested on: HS 578T; assay: NCI 60 cell panel SRB screen; assay type: cell-based; settings: Homo sapiens, Hs-578T, read-out: percent cell growth promotion
[16] = tested on: M14; assay: NCI 60 cell panel SRB screen; assay type: cell-based; settings: Homo sapiens, M14, read-out: percent cell growth promotion
[17] = tested on: MDA-MB-435; assay: NCI 60 cell panel SRB screen; assay type: cell-based; settings: Homo sapiens, MDA-MB-435, read-out: percent cell growth promotion
[18] = tested on: full NCI 60 cell panel; assay: NCI 60 cell panel SRB screen, whole panel; assay type: cell-based, human; settings: for activity at 10 µM: Homo sapiens, 60 cell, mean over the panel, single dose 10 μM, read-out: Mean percent cell growth promotion; for cell growth inhibition, in words: single dose 10 µM
Excerpt: Aiming to evaluate the general antitumour activity of the synthesised phthalazines, the structures of the final compounds were submitted to National Cancer Institute “NCI” (www.dtp.nci.nih.gov), Bethesda, Maryland, USA. In vitro NCI anticancer screening involves two-stage process, the first stage started with the evaluation of the selected candidates against the full NCI 60 cell lines panel representing leukaemia, non-small cell lung cancer, melanoma, colon, CNS, breast, ovarian, renal and prostate cancers at a single dose of 10 µM. NCI selection is based on degree of structure variation and application of computer modelling techniques to prioritise compounds based on their ability to add diversity to the NCI small molecule compound collection.
Eight compounds (6b, 6e, 7b, 13a, 13c, 16a, 16d and 17a) were selected by NCI for further 5 log dose screening against full NCI 60 cell panel. All the 60 cell lines, representing nine tumour subpanels (leukaemia, non-small cell lung cancer, colon cancer, CNS cancer, prostate cancer, melanoma, ovarian cancer, renal cancer and breast cancer) which were incubated at five different concentrations (0.01, 0.1, 1, 10 and 100 µM) of each of the test compounds. The outcomes were used to create log concentration vs % growth inhibition curves, then three response parameters (GI50, TGI and LC50) were calculated for each cell line, (Tables S4 and S5 in Supplementary material).
The human tumor cell lines of the cancer-screening panel were grown in RPMI 1640 medium containing 5% fetal bovine serum and […] L-glutamine. For a typical screening experiment, cells are inoculated into 96 well microtiter plates in 100 ml at plating densities ranging from 5000 to 40,000 cells/well depending on the doubling time of individual cell lines. After cell inoculation, the microtiter plates are incubated at 37 °C, 5% CO2, 95% air and 100%
relative humidity for 24 h prior to addition of experimental drugs. After 24 h, two plates of each cell line are fixed in situ with TCA, to represent a measurement of the cell population for each cell line at the time of drug addition (Tz). Experimental drugs are dissolved in dimethyl sulfoxide at 400-fold the desired final maximum test concentration and stored frozen prior to use. At the time of drug addition, an aliquot of frozen concentrate is thawed and diluted to twice the desired final maximum test concentration with complete medium containing […] Gentamicin. Additional four, 10-fold or ½log serial dilutions are made to provide a total of five drug concentrations plus control. Aliquots of […] of these different drug dilutions are added to the appropriate microtiter wells already containing 100 ml of medium, resulting in the required final drug concentrations. Following drug addition, the plates are incubated for an additional 48 h at 37 °C, 5% CO2, 95% air, and 100% relative humidity. For adherent cells, the assay is terminated by the addition of cold TCA. Cells are fixed in situ by the gentle addition of […] of cold 50% (w/v) TCA (final concentration,10% TCA) and incubated for 60 min at 4 °C. The supernatant is discarded, and the plates are washed five times with tap water and air dried. Sulforhodamine B (SRB) solution (100 ml) at 0.4% (w/v) in 1% acetic acid is added to each well, and plates are incubated for 10 min at room temperature. After staining, unbound dye is removed by washing five times with 1% acetic acid and the plates are air dried. Bound stain is subsequently dissolved with 10 μM trizma base, and the absorbance is read on an automated plate reader at a wavelength of 515 nm. For suspension cells, the methodology is the same except that the assay is terminated by fixing settled cells at the bottom of the wells by gently adding […] of 80% TCA (final concentration, 16% TCA). […]

[19] = tested on: MCF7; assay: NCI 60 cell panel SRB screen; assay type: cell-based; settings: Homo sapiens, MCF7, read-out: percent cell growth promotion

Structure (SMILES)	activity at 10 µM [1] [%]	activity at 10 µM [2] [%]	activity at 10 µM [3] [%]	activity at 10 µM [4] [%]	activity at 10 µM [5] [%]	activity at 10 µM [6] [%]	activity at 10 µM [7] [%]	activity at 10 µM [8] [%]	activity at 10 µM [9] [%]	activity at 10 µM [10] [%]	activity at 10 µM [11] [%]	activity at 10 µM [12] [%]	activity at 10 µM [13] [%]	activity at 10 µM [14] [%]	activity at 10 µM [15] [%]	activity at 10 µM [16] [%]	activity at 10 µM [17] [%]	activity at 10 µM [18] [%]	cell growth inhibition, in words [18]	activity at 10 µM [19] [%]
Cc1nnc(N2CCN(c3ccccc3F)CC2)c2ccccc12 [Compound 8h, 1–(4-(2-Fluorophenyl)piperazin-1-yl)-4-methylphthalazine]	92.7	99.2	99.9	100	98.4	65.3	92.9	107	86.8	121	96.2	100	91.8	95.6	110	95	93.5	99	nor the piperazines (8a, 8d, 8f, 8g, 8h and 8i) showed any significant cell line growth inhibition	86.5
Cc1nnc(N2CCN(c3ccccn3)CC2)c2ccccc12 [Compound 8i, 1-Methyl-4–(4-(pyridin-2-yl)piperazin-1-yl)phthalazine]	87.8	101	101	99.8	99.6	–	97	111	94.8	117	98.6	104	90.3	98.1	109	98.6	99.6	101	nor the piperazines (8a, 8d, 8f, 8g, 8h and 8i) showed any significant cell line growth inhibition	89.1

Reference: article PMC6691788, “Design and synthesis of phthalazine-based compounds as potent anticancer agents with potential antiangiogenic activity via VEGFR-2 inhibition” (Journal of Enzyme Inhibition and Medicinal Chemistry, 2019)
